Here are results for 22 compounds from US8748417B2, “Amino-pyrrolidine-azetidine diamides as monoacylglycerol lipase inhibitors” (Janssen Pharmaceutica, NV, priority 2010, dated 2014).

SMILES strings stand for the structures. Where a chain is given by its changes, count along the chain named. pIC50: −log10 of the molar value.

As a reminder, the pIC50 is the negative decadic logarithm of the IC50, by convention in mol/L.

Holding throughout (type): biochemical
Test [1] concerns the target T1, purified mutant MGL (mut-MGLL 11-313 L179S L186S) (Homo sapiens, UniProt Q99685, L169S/L176S).
T1 construct: purified mutant MGL (mut-MGLL 11-313 L179S L186S)
T1 sequence (Q99685 1-303 L169S/L176S): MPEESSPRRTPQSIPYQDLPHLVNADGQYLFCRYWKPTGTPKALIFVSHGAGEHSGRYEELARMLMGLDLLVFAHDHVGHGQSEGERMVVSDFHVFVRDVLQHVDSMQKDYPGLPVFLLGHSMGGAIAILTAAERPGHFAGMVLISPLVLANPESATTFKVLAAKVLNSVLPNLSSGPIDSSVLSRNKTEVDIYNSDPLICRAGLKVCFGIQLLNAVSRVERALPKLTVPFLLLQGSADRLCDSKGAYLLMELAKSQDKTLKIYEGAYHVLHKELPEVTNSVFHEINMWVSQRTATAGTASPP
Briefly: MGL enzyme activity assay (4MU-B cleavage), mutant MGL. Particulars: mutant MGL 5 nM, 4MU-B 10 μM, 37° C.; read-out: MGL mutant inh IC50. How it is done: All rate-based assays were performed in black 384-well polypropylene PCR microplates (Abgene) in a total volume of 30 μL. Substrate 4-methylumbelliferyl butyrate (4MU-B; Sigma) and either purified mutant MGL (mut-MGLL 11-313 L179S L186S) or purified wild type MGL (wt-MGLL 6H-11-313) were diluted separately into 20 mM PIPES buffer (pH=7.0), containing 150 mM NaCl and 0.001% Tween 20. Compounds of Formula (I) were pre-dispensed (50 nL) into the assay plate using a Cartesian Hummingbird prior to adding 4MU-B (25 μL of 1.2× solution to a final concentration of 10 μM) followed by enzyme (5 μL of a 6× solution to a final concentration of 5 nM) to initiate the reaction. Final compound concentrations ranged from 17 to 0.0003 μM. The fluorescence change due to 4MU-B cleavage was monitored with excitation and emission wavelengths of 335 and 440 nm, respectively, and a bandwidth of 10 nm (Safire^2, Tecan) at 37° C. for 5 min.
The IC50 values for the following compounds were determined using Microsoft Office Excel from a fit of the equation to the concentration-response plot of the fractional activity as a function of inhibitor concentration.

The test system of test [2] is MGL (rat brain homogenate). Briefly: 2-AG accumulation assay in rat brain homogenate. Particulars: percent of vehicle 2-AG accumulation; for Rat Brain 2AG % VehCntrl (%) @10 μM: compound 10 μM; for Rat Brain 2AG % VehCntrl (%) @1 μM: compound 1 μM. Summed up:
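Rat brain homogenate was incubated with compound for 15 min at 37° C., after which CaCl2 was added to a final concentration of 10 mM and incubation continued for 15 min at 37° C. in 5 mL total. Reactions were stopped with 6 mL of 2:1 chloroform/methanol, and 2-AG accumulated in the organic phase was quantified by HPLC/MS.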

The target in test [3] is T2, purified wild type MGL (wt-MGLL 6H-11-313) (Homo sapiens, UniProt Q99685).
T2 construct: purified wild type MGL (wt-MGLL 6H-11-313)
T2 sequence (Q99685 1-303): T1 sequence (Q99685 1-303 L169S/L176S) with S169L, S176L
In words: MGL enzyme activity assay (4MU-B cleavage), wild type MGL. As to conditions: wild type MGL 5 nM, 4MU-B 10 μM, 37° C.; read-out: MGL wild type inh IC50. A digest of the protocol:
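Enzyme in 20 mM PIPES pH 7.0, 150 mM NaCl, 0.001% Tween 20 with 4MU-B at 10 μM final and MGL at 5 nM final; compounds 17 to 0.0003 μM final, enzyme added last. Fluorescence (ex 335/em 440 nm) followed at 37° C for 5 min; IC50 from fit of fractional activity versus inhibitor concentration.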

Regarding `O=C(c1ccc(Cc2ccccc2)cc1)N1CC(N[C@H]2CCN(C(=O)c3nccs3)C2)C1` [Cpd 3, (3S)-N-{1-[(4-Benzylphenyl)carbonyl]azetidin-3-yl}-1-(1,3-thiazol-2-ylcarbonyl)pyrrolidin-3-amine], the pIC50 in test [1] was 7.66. The “Rat Brain 2AG % VehCntrl (%) @10 μM” value in test [2] was 844%.
In the same order, the values of `O=C(c1ccc(Cc2ccccc2)cc1)N1CC(N[C@H]2CCN(C(=O)c3ccccc3)C2)C1` [Cpd 4, (3S)-N-{1-[(4-Benzylphenyl)carbonyl]azetidin-3-yl}-1-(phenylcarbonyl)pyrrolidin-3-amine] are 7.92 and 1033%.
`O=C(c1ccc(Cc2ccccc2)cc1)N1CC(N[C@H]2CCN(C(=O)c3ccsc3)C2)C1` [Cpd 5, (3S)-N-{1-[(4-Benzylphenyl)carbonyl]azetidin-3-yl}-1-(thiophen-3-ylcarbonyl)pyrrolidin-3-amine]: in test [1], the negative-log IC50 (pIC50) is greater than 8.30. The “Rat Brain 2AG % VehCntrl (%) @10 μM” value in test [2] is 962%.
Regarding `CN(C1CN(C(=O)c2ccc(Cc3ccccc3)cc2)C1)[C@H]1CCN(C(=O)c2ccccc2)C1` [Cpd 14, (3S)-N-{1-[(4-Benzylphenyl)carbonyl]azetidin-3-yl}-N-methyl-1-(phenylcarbonyl) pyrrolidin-3-amine], the pIC50 in test [1] was 8.30. In addition, the “Rat Brain 2AG % VehCntrl (%) @1 μM” value in test [2] came to 484%.
For `O=C(c1ccc(-c2cc(Cl)cc(Cl)c2)cc1)N1CC(N[C@H]2CCN(C(=O)c3ccccc3)C2)C1` [Cpd 17, (3S)-N-{1-[(3′,5′-Dichlorobiphenyl-4-yl)carbonyl]azetidin-3-yl}-1-(phenylcarbonyl)pyrrolidin-3-amine], in that order: 7.39 and 441%.
In the case of `O=C(c1ccccc1)N1CC[C@H](NC2CN(C(=O)c3cc4ccc(C(F)(F)F)cc4s3)C2)C1` [Cpd 20, (3S)-1-(Phenylcarbonyl)-N-(1-{[6-(trifluoromethyl)-1-benzothiophen-2-yl]carbonyl}azetidin-3-yl)pyrrolidin-3-amine], in test [1], the pIC50 is 7.09. The “Rat Brain 2AG % VehCntrl (%) @1 μM” value in test [2] came to 304%.
In the same order, the values of `O=C(c1ccccc1)N1CC[C@H](NC2CN(C(=O)c3sc4cc(Br)ccc4c3Cl)C2)C1` [Cpd 21, (3S)-N-{1-[(6-Bromo-3-chloro-1-benzothiophen-2-yl)carbonyl]azetidin-3-yl}-1-(phenylcarbonyl)pyrrolidin-3-amine] are 8.30 and 596%.
For `O=C(c1ccc2c(Br)cccc2c1)N1CC(N[C@H]2CCN(C(=O)c3ccccc3)C2)C1` [Cpd 22, (3S)-N-{1-[(5-Bromonaphthalen-2-yl)carbonyl]azetidin-3-yl}-1-(phenylcarbonyl)pyrrolidin-3-amine], in that order: 7.47 and 223%.
In the same order, the values of `O=C(c1ccc2c(-c3ccccc3)cccc2c1)N1CC(N[C@H]2CCN(C(=O)c3ccccc3)C2)C1` [Cpd 23, (3S)-1-(Phenylcarbonyl)-N-{1-[(5-phenylnaphthalen-2-yl)carbonyl]azetidin-3-yl}pyrrolidin-3-amine] are 7.83 and 293%.
With `O=C(c1ccc2c(-c3ccccc3C(F)(F)F)cccc2c1)N1CC(N[C@H]2CCN(C(=O)c3ccccc3)C2)C1` [Cpd 24, (3S)-1-(Phenylcarbonyl)-N-[1-({5-[2-(trifluoromethyl)phenyl]naphthalen-2-yl}carbonyl)azetidin-3-yl]pyrrolidin-3-amine], the pIC50 in test [1] is 8.07. Also, the “Rat Brain 2AG % VehCntrl (%) @1 μM” value in test [2] was 706%.
For `O=C(c1ccc2c(c1)Cc1ccccc1-2)N1CC(N[C@H]2CCN(C(=O)c3ccccc3)C2)C1` [Cpd 27, (3S)-N-[1-(9H-Fluoren-2-ylcarbonyl)azetidin-3-yl]-1-(phenylcarbonyl)pyrrolidin-3-amine], in that order: 7.01 and 125%.
Regarding `O=C(c1ccc(-c2ccccc2)cc1)N1CC(N[C@H]2CCN(C(=O)c3cc4ccccc4o3)C2)C1` [Cpd 47, (3S)-1-(1-Benzofuran-2-ylcarbonyl)-N-[1-(biphenyl-4-ylcarbonyl)azetidin-3-yl]pyrrolidin-3-amine], the pIC50 in test [1] is 4.96.
The same measure, in the same setting: the figure for `O=C(c1ccc(-c2ccccc2)cc1)N1CC(N[C@H]2CCN(C(=O)c3cc4ccccc4s3)C2)C1` [Cpd 48, (3S)-1-(1-Benzothiophen-2-ylcarbonyl)-N-[1-(biphenyl-4-ylcarbonyl)azetidin-3-yl]pyrrolidin-3-amine] is 5.05.
As to `O=C(c1ccccc1)N1CC[C@H](NC2CN(C(=O)c3cc4cc(Br)ccc4s3)C2)C1` [Cpd 49, (3S)-N-{1-[(5-Bromo-1-benzothiophen-2-yl)carbonyl]azetidin-3-yl}-1-(phenylcarbonyl)pyrrolidin-3-amine], the results for the pIC50 in test [1] and in test [3] were 6.45 and 6.32, respectively.
Consider `O=C(c1ccccc1)N1CC[C@H](NC2CN(C(=O)c3cc4cc(-c5cccc(C(F)(F)F)c5)ccc4s3)C2)C1` [Cpd 51, (3S)-1-(Phenylcarbonyl)-N-[1-({5-[3-(trifluoromethyl)phenyl]-1-benzothiophen-2-yl}carbonyl)azetidin-3-yl]pyrrolidin-3-amine], for which the figures for the pIC50 in test [1] and in test [3] were 6.64 and greater than 8.30, respectively.
In the same order, the values of `O=C(c1ccccc1)N1CC[C@H](NC2CN(C(=O)c3cc4cc(-c5ccc(C(F)(F)F)cc5)ccc4s3)C2)C1` [Cpd 52, (3S)-1-(Phenylcarbonyl)-N-[1-({5-[4-(trifluoromethyl)phenyl]-1-benzothiophen-2-yl}carbonyl)azetidin-3-yl]pyrrolidin-3-amine] are 6.65 and 8.18.
In the same order, the values of `O=C(c1ccc(-c2ccccc2)cc1)N1CC(NC2CN(C(=O)c3ccccc3)CC2F)C1` (stereo not shown) [Cpd 58, N-[1-(Biphenyl-4-ylcarbonyl)azetidin-3-yl]-4-fluoro-1-(phenylcarbonyl)pyrrolidin-3-amine] are 7.48 and 6.33.
For the compound `O=C(c1ccc(-c2ccccc2)cc1)N1CC(N[C@@H]2CN(C(=O)c3ccccc3)CC2F)C1` (stereo partly drawn) [Cpd 60, (3R)-N-[1-(Biphenyl-4-ylcarbonyl)azetidin-3-yl]-4-fluoro-1-(phenylcarbonyl)pyrrolidin-3-amine], the pIC50 in test [1] is less than 4.78.
The same measure, in the same setting: the figure for `O=C(c1ccccc1)N1CC[C@H](NC2CN(C(=O)c3sc4ccccc4c3-c3ccccc3)C2)C1` [Cpd 65, (3S)-N-{1-[(3-Phenyl-1-benzothiophen-2-yl)carbonyl]azetidin-3-yl}-1-(phenylcarbonyl)pyrrolidin-3-amine] is 6.99.
`O=C(c1ccccc1)N1CC[C@H](NC2CN(C(=O)c3sc4ccccc4c3C3CC3)C2)C1` [Cpd 66, (3S)-N-{1-[(3-Cyclopropyl-1-benzothiophen-2-yl)carbonyl]azetidin-3-yl}-1-(phenylcarbonyl)pyrrolidin-3-amine]: the pIC50 in test [1] was 6.67.
Still for that read-out and setting: with `O=C(c1ccccc1)N1CCC(NC2CN(C(=O)c3ccc(C(F)c4ccc(C(F)(F)F)cc4)cc3)C2)C1` (stereo not shown) [Cpd 69, N-{1-[(4-{Fluoro[4-(trifluoromethyl)phenyl]methyl}phenyl)carbonyl]azetidin-3-yl}-1-(phenylcarbonyl)pyrrolidin-3-amine] the figure was 6.70.
Same read-out and setting: the figure for `COC1CN(C(=O)c2ccccc2)CC1NC1CN(C(=O)c2ccc(-c3cccc(C(F)(F)F)c3)cc2)C1` (stereo not drawn) [Cpd 71, trans--4-Methoxy-1-(phenylcarbonyl)-N-(1-{[3′-(trifluoromethyl)biphenyl-4-yl]carbonyl}azetidin-3-yl)pyrrolidin-3-amine] is 5.25.
